Read-outs that look alike come from different tables or passages of the source.
Experiments:
[1] = tested on: patients with recurrent malignant glioma; settings: single agent, cited from earlier work
clinical = settings: human, in vivo
GBM = settings: second line treatment of patients with GBM; cited from earlier work

Molecule: Cn1cncc1[C@@](N)(c1ccc(Cl)cc1)c1ccc2c(c1)c(-c1cccc(Cl)c1)cc(=O)n2C [tipifarnib, Tipifarnib]
- predominant DLT ([1]; patients not taking EIAEDs): myelosuppression
- predominant DLT ([1]; patients on EIAEDs): rash
- AUC from 0–12 hours at MTD, those receiving EIAEDs compared with those not receiving EIAEDs [1]: approximately halved
- change of AUC between daily or twice daily dosing (clinical): do not seem to change significantly
- AUC (clinical; 100 mg): 761.5 ± 468.8 ng·h/mL
- T1/2 (clinical; 100 mg): 3.35 ± 1.29 h
- AUC (clinical; 100 mg, AUC): 904 ± 377 ng·h/mL
- half-life (clinical; 100 mg, T1/2): 6.57 ± 1.18 h

Molecule: bevacizumab
- 6-months progression free survival (PFS) (GBM): 29–45%

Source: publication PMC5756101 (Journal of neuro-oncology, 2017)
